In the experiment the test system is polio virus. The class given is cell-based. As to conditions: tested on its own.

Turning to `CCCCCCCCCCCCN(CCCN)CCCN` [dodecyl dipropylene triamine, Dodecyl dipropylene triamine], the “effect against the polio virus” value is given as “no effect”.

(Values after patent publication US11326131B2, “Cleaning composition” (AMITY LIMITED, priority 2008, dated 2022).)
